# According to patent publication US12344595B2, “2-amino-n-phenyl-nicotinamides as NAV1.8 inhibitors” (Merck Sharp & Dohme LLC, priority 2018, dated 2025):
# pIC50: −log10 of the molar value.
# Target: human Nav1.8 (Homo sapiens (Human), UniProt Q9Y5Y9)
# Assay: Nav1.8 Qube automated patch-clamp assay
# Assay type: cell-based
# Details: Nav1.8 Qube Assay; human Nav1.8 channels stably expressed in HEK 293 cells
# In short: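 IC50 values came from Hill fitting of peak currents: pulse 1 for resting-state and pulse 10 for inactivated-state inhibition. Currents were recorded in stably transfected HEK293 cells at room temperature, with ten 20 ms steps to 10 mV at 1 Hz from a −90 mV hold. External solution was 150 mM NaCl-based; internal solution was CsF/CsCl.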
# Sequence of human Nav1.8 (Q9Y5Y9 whole entry): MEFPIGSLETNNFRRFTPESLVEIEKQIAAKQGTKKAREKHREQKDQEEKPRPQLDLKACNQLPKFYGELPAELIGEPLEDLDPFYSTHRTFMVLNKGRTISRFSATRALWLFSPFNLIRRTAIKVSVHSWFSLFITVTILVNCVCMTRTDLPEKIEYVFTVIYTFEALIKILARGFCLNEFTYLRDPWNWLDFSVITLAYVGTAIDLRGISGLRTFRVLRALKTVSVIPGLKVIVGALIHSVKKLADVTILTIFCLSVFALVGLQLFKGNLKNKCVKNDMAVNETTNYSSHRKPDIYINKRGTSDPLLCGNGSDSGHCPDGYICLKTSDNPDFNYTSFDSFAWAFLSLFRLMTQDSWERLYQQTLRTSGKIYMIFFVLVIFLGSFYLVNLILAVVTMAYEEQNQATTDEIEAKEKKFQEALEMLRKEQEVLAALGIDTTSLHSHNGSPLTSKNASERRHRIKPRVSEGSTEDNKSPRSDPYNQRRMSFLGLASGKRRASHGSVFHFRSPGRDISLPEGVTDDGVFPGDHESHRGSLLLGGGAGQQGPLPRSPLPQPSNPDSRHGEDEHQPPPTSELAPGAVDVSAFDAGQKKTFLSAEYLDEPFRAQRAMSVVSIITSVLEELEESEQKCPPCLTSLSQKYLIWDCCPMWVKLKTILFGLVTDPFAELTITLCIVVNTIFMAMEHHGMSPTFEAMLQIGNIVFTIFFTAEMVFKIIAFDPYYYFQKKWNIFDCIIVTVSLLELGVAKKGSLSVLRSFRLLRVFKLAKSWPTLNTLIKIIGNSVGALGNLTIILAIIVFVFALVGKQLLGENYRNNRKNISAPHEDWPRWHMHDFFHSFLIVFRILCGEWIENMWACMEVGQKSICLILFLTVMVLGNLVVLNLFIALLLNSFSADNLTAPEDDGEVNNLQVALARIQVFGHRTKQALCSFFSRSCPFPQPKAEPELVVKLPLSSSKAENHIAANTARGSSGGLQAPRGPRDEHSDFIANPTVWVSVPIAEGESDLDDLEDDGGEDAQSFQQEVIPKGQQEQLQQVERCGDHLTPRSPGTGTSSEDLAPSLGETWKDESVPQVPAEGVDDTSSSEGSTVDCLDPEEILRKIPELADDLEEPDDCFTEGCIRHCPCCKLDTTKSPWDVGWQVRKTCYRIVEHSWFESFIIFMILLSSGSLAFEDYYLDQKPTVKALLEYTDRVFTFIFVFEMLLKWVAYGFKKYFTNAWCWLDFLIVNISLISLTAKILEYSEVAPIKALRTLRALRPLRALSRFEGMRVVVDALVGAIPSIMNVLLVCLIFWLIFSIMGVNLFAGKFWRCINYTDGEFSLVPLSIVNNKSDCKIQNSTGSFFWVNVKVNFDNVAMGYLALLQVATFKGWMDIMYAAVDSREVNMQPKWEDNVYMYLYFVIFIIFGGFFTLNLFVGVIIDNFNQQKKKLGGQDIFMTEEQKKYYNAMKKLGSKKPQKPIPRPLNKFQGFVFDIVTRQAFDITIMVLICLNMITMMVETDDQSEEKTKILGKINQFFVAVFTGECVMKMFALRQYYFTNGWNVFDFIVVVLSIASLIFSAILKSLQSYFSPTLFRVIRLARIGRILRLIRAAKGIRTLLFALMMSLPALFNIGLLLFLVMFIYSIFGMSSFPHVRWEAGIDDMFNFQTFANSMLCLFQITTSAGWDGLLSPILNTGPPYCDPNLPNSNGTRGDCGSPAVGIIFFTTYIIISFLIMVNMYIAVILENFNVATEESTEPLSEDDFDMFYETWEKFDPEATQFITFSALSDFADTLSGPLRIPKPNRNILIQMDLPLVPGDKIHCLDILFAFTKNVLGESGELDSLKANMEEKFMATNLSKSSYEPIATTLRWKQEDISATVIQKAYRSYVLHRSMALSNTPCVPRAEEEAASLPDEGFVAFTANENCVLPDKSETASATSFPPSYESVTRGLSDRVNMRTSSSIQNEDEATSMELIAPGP
row,pIC50,SMILES
1,7.51,"NS(=O)(=O)c1cccc(NC(=O)c2cc(F)c(Cl)nc2N2CCCCCC2)c1 [Example 92, 2-(azepan-1-yl)-6-chloro-5-fluoro-N-(3-sulfamoylphenyl)-pyridine-3-carboxamide]"
2,7.59,"C[C@@H]1CN(c2ncc(C(F)(F)F)cc2C(=O)Nc2cccc(S(N)(=O)=O)c2)C[C@@H](C(F)(F)F)O1 [Example 146, 2-[(2R,6S)-2-methyl-6-(trifluoromethyl)morpholin-4-yl]-N-(3-sulfamoylphenyl)-5-(trifluoromethyl) pyridine-3-carboxamide]"
3,8.49,"C=CCCc1cnc(N2CCCC(F)(F)CC2)c(C(=O)Nc2cccc(S(N)(=O)=O)c2)c1 [Example 161, 5-(but-3-en-1-yl)-2-(4,4-difluoroazepan-1-yl)-N-(3-sulfamoylphenyl)nicotinamide]"
4,6.45,"CC1CN(c2ncc(C(F)(F)F)cc2C(=O)Nc2cccc(S(N)(=O)=O)c2)CC(C)O1 (single isomer, unassigned) [Example 149, 2-[(2R,6S or 2S,6R)-2,6-dimethylmorpholin-4-yl]-N-(3-sulfamoylphenyl)-5-(trifluoromethyl) pyridine-3-carboxamide]"
5,8.66,"Cc1nc(N2CCC3(CC2)CC3)c(C(=O)Nc2cccc(S(N)(=O)=O)c2)c(C)c1Cl [Example 76, 2-(6-azaspiro[2.5]-octan-6-yl)-5-chloro-4,6-dimethyl-N-(3-sulfamoylphenyl) pyridine-3-carboxamide]"
6,6.38,"CC1CN(c2ncc(C(F)(F)F)cc2C(=O)Nc2cccc(S(N)(=O)=O)c2)CC(C)O1 (single isomer, unassigned) [Example 150, 2-[(2S,6S or 2R,6R)-2,6-dimethylmorpholin-4-yl]-N-(3-sulfamoylphenyl)-5-(trifluoromethyl) pyridine-3-carboxamide]"
7,7.15,"NS(=O)(=O)c1cccc(NC(=O)c2cc(C(F)(F)F)nnc2N2CCCC(F)(F)CC2)c1 [Example 181, 3-(4,4-difluoroazepan-1-yl)-N-(3-sulfamoylphenyl)-6-(trifluoromethyl)pyridazine-4-carboxamide]"
8,7.92,"NS(=O)(=O)c1cccc(NC(=O)c2cc(C(F)(F)F)cnc2N2CC3CC4CC(C3)CC2C4)c1 [Example 46, N-(3-sulfamoylphenyl)-2-(4-azatricyclo-[4.3.1.13,8]undecan-4-yl)-5-(trifluoromethyl)-nicotinamide]"
9,6.47,"NS(=O)(=O)c1cccc(NC(=O)c2cc(C(F)(F)F)cnc2N2CCCC[C@H](F)C2)c1 [Example 54, 2-[(3S)-3-fluoroazepan-1-yl]-N-(3-sulfamoyl-phenyl)-5-(trifluoro-methyl)pyridine-3-carboxamide]"

# More lines, now with the values behind:
row,SMILES,pIC50
1,"NS(=O)(=O)c1cccc(NC(=O)c2cc(C(F)(F)F)cnc2N2CCNC(C(F)(F)F)C2)c1 (stereo not drawn) [Example 143, N-(3-sulfamoylphenyl)-5-(trifluoromethyl)-2-[3-(trifluoromethyl)-piperazin-1-yl]pyridine-3-carboxamide]",5.66
2,"NC(=O)c1cccc(NC(=O)c2cc(C(F)(F)C(F)(F)F)cnc2N2CCCCCC2)c1 [Example 167, 2-(azepan-1-yl)-N-(3-carbamoylphenyl)-5-(1,1,2,2,2-penta-fluoroethyl)pyridine-3-carboxamide]",7.07
3,"NS(=O)(=O)c1cccc(NC(=O)c2cc(OC(F)(F)F)cnc2N2CCCC(F)(F)CC2)c1 [Example 39, 2-(4,4-difluoroazepan-1-yl)-N-(3-sulfamoylphenyl)-5-(trifluoromethoxy)nicotinamide]",8.60
4,"NC(=O)c1cccc(NC(=O)c2cc(C(F)(F)F)cnc2N2CCCCCCC2)c1 [Example 107, 2-(azocan-1-yl)-N-(3-carbamoylphenyl)-5-(trifluoromethyl)-pyridine-3-carboxamide]",7.14
5,"NS(=O)(=O)c1cccc(NC(=O)c2cc(C(F)(F)F)cnc2N2CC3CCC3(C(F)(F)F)C2)c1 (single isomer, unassigned) [Example 131, N-(3-sulfamoylphenyl)-5-(trifluoromethyl)-2-[(1S,5S or 1R,5R)-1-(trifluoromethyl)-3-azabicyclo[3.2.0]heptan-3-yl]pyridine-3-carboxamide]",6.95
6,"C[C@H]1CN(c2ncc(C(F)(F)F)cc2C(=O)Nc2cccc(S(N)(=O)=O)c2)C[C@@H](C(F)(F)F)O1 [Example 148, 2-[(2S,6S)-2-methyl-6-(trifluoromethyl)-morpholin-4-yl]-N-(3-sulfamoylphenyl)-5-(trifluoromethyl) pyridine-3-carboxamide]",6.95
7,"CS(=O)(=O)c1cccc(NC(=O)c2cc(C(F)(F)F)cnc2N2CCC(F)(F)CC2)c1 [Example 152, 2-(4,4-difluoropiperidin-1-yl)-N-(3-(methylsulfonyl)phenyl)-5-(trifluoromethyl)nicotinamide]",7.17
8,"NS(=O)(=O)c1cccc(NC(=O)c2ccc(C(F)(F)F)nc2N2CCCCC2)c1 [Example 77, 2-(1-piperidyl)-N-(3-sulfamoylphenyl)-6-(trifluoromethyl) pyridine-3-carboxamide]",6.54
9,"CN1Cc2ccc(NC(=O)c3cc(C(F)(F)F)cnc3N3CCCCCC3)cc2S1(=O)=O [Example 122, 2-(azepan-1-yl)-3-((2-methyl-1,1-dioxido-2,3-dihydrobenzo[d]isothiazol-6-yl)-carbamoyl)-5-(trifluoromethyl)pyridine]",5.04
10,"CC(C)(C)c1ccc(C(=O)Nc2cccc(S(N)(=O)=O)c2)c(N2CCCCC2)n1 [Example 42, 6-(tert-butyl)-2-(piperidin-1-yl)-N-(3-sulfamoylphenyl)nicotinamide]",5.57
11,"NS(=O)(=O)c1cccc(NC(=O)c2c(Br)ccnc2N2CCCCCC2)c1 [Example 33, 2-(azepan-1-yl)-4-bromo-N-(3-sulfamoyl-phenyl)pyridine-3-carboxamide]",7.36
12,"Cc1cc(C(=O)Nc2cccc(C(N)=O)c2)c(N2CCCCCC2)nc1C [Example 37, 2-(azepan-1-yl)-N-(3-carbamoylphenyl)-5,6-dimethyl-pyridine-3-carboxamide]",6.97
13,"Cc1nc(N2CCCCCC2)c(C(=O)Nc2cccc(S(N)(=O)=O)c2)cc1Cl [Example 26, 2-(azepan-1-yl)-5-chloro-6-methyl-N-(3-sulfamoylphenyl)nicotinanmide]",8.68
14,"CS(=O)(=O)c1cccc(NC(=O)c2ccc(C(F)(F)F)nc2N2CCCCCC2)c1 [Example 82, 2-(azepan-1-yl)-N-(3-(methylsulfonyl)phenyl)-6-(trifluoro-methyl)nicotinamide]",7.22
15,"NS(=O)(=O)c1cccc(NC(=O)c2cc(C(F)(F)C(F)(F)F)cnc2N2CCCCCC2)c1 [Example 164, 2-(azepan-1-yl)-5-(perfluoroethyl)-N-(3-sulfamoylphenyl)nicotinamide]",7.82
